Results published in US20160289594A1, “USE OF CNGA2 AGONISTS FOR ENHANCING THE OLFACTORY EFFECT OF AN ODORANT” (Henkel AG & Co. KGaA, priority 2013, published 2016).

Tested on: CNGA2 ion channel
Assay: Experiments with skatole on direct activation of the CNGA2 ion channel
Format: cell-based, human
Details: CNGA2 ion channel of all odor receptor cells, in addition to specific odor receptors

`Cc1c[nH]c2ccccc12` [skatole, 3-methylindole] was tested, and the “Activation of the CNGA2 ion channel” value was “directly activates”.
